# Measurements: patent US20230310540A1, “PEPTIDE COMPOSITIONS AND METHODS OF USE THEREOF” (priority 2020, published 2023)
# Like-named read-outs stand apart in the source and are kept apart here. Bridge positions count the residues as written; N and C are the ends. Square brackets hold non-standard residues; d marks the D form. Peptide text beside a SMILES is read from it. βAla = NCCC(=O)O
# Columns and labels:
# [1] = tested on: Methicillin-resistant Staphylococcus aureus (SAP400); experiment: Broth dilution MIC against MRSA isolate; assay type: cell-based
# [2] = tested on: Acinetobacter baumannii (PDR); experiment: Broth dilution MIC against pan drug-resistant A. baumannii isolate; assay type: cell-based; settings: isolate AB (PDR)
# [3] = tested on: Pseudomonas aeruginosa (CF mucoid and non-mucoid); experiment: Broth dilution MIC against P. aeruginosa isolates from cystic fibrosis patients; assay type: cell-based
# [4] = tested on: E. coli; assay type: cell-based; settings: for MIC in Broth Dilution, E. coli, RBC −: absence of RBC; for MIC in Broth Dilution, E. coli, RBC − / MIC in Broth Dilution, E. coli, RBC +: Table 3; for MIC, E. coli, No RBC / MIC, E. coli, 10^9 cells/ml RBC: Table 2; for MIC in Broth Dilution, E. coli, RBC +: presence of 1×10^9 human RBC/ml; for MIC, E. coli, 10^9 cells/ml RBC: with 10^9 human RBC/ml
# Experimental: (§1) Peptide variants of D-CONGA (SEQ ID NO: 1) were tested for activity against E. coli, K. pneumoniae, and S. aureus. Minimum Inhibitory Concentrations (MIC) were measured in 96-well plates by broth dilution. Peptides were serially diluted in buffer or in buffer containing 1×10^9 human RBC/ml. Following 1 hr. incubation, bacteria in growth media were added and the plates were incubated overnight at 37° C. Sterilized, wells were identified to determine MIC. Hemolysis was measured by incubating 1×10^8 human RBCs with serially diluted peptide for 30 minutes followed by centrifugation of the cells and measurements of the released hemoglobin in the supernatant by absorbance at 410 nm. The value for 100% hemolysis was established by treatment with the detergent Triton-X100. Toxicity was measured by incubating serially diluted peptide with WI38 human fibroblast cells in the presence of SYTOX Green, a DNA binding dye that reports on cell death by membrane permeabilization. The peptide concentration that gives 50% cytotoxicity by relative SYTOX Green fluorescence, is denoted EC50.
# (§2) Antimicrobial peptides and conventional antibiotics were prepared at 5-times the final concentration needed in 0.025% acetic acid. The antibiotics were serially diluted by a factor of 2:3 horizontally across 96-well plates from Corning, 25 μL per well. One column was reserved for controls. For the assays performed in the presence of RBC, type O+ human RBCs at 0 or 2.5×10^9 cells/mL were added in 50 μL aliquots to all wells. Following a 30-minute incubation, 50 μL of TSB, inoculated with 5×10^5 CFU/mL, was added to all wells, and plates were incubated overnight at 37° C. Following overnight incubation at 37° C., the OD600 was measured (values of less than 0.1 were considered sterilized). To assess bacterial growth in the assays with RBC, the OD600 was measured after a second day inoculation with 10 μL of solution from the original plate added to 100 μL of sterile TSB followed by overnight incubation.
# (§3) MIC values were reported in μM peptide against gram-negative E. coli (EC), P. aeruginosa (PA), and gram-positive S. aureus (SA). The two columns under each organism are for assays performed in the absence (−) and presence (+) of 1×10^9 human RBC/ml. “>30” means that sterilization was not observed at 30 μM, the highest concentration tested. The column marked “hemolysis” is the fractional hemolysis of 1×10^8 human RBC/ml at 100 μM peptide determined from measurements of serially diluted peptide, starting from 100 μM. The column marked “EC 50” contains the concentration of peptide that kills 50% of WI-38 human fibroblast cells assayed by entry of SYTOX™ Green DNA binding dye.
# [5] = tested on: K. pneumoniae; assay type: cell-based; settings: for MIC in Broth Dilution, K. Pneumoniae, RBC +: presence of 1×10^9 human RBC/ml; for MIC, K. pneumoniae, 10^9 cells/ml RBC: with 10^9 human RBC/ml
# Experimental: as §1, §2, §3
# [6] = tested on: S. aureus; assay type: cell-based; settings: for MIC in Broth Dilution, S. Aureus, RBC −: absence of RBC; for MIC in Broth Dilution, S. Aureus, RBC − / MIC in Broth Dilution, S. Aureus, RBC +: Table 3; for MIC, S. aureus, No RBC / MIC, S. aureus, 10^9 cells/ml RBC: Table 2; for MIC in Broth Dilution, S. Aureus, RBC +: presence of 1×10^9 human RBC/ml; for MIC, S. aureus, 10^9 cells/ml RBC: with 10^9 human RBC/ml
# Experimental: as §1, §2, §3
# [7] = tested on: human RBCs; experiment: Hemolysis of human RBCs; assay type: cell-based
# Experimental: as §1
# Peptide was serially diluted in PBS starting at a concentration of 100 μM. The final volume of peptide in each well was 50 μL. To each well, 50 μL of RBCs in PBS at 2×10^8 cells/mL was added. As a positive lysis control, 1% triton was used. The mixtures were incubated at 37° C. for 1 hour, after which they were centrifuged at 1000 g for 5 minutes. After centrifugation, 10 μL of supernatant was transferred to 90 μL of DI H2O in a fresh 96-well plate. The absorbance of released hemoglobin at 410 nm was recorded and the fractional hemolysis was calculated based on the 100% and 0% lysis controls.
# as §3
# [8] = tested on: WI-38 human fibroblast cells; experiment: SYTOX Green cytotoxicity assay; assay type: cell-based
# Experimental: Peptide variants of D-CONGA (SEQ ID NO: 1) were tested for activity against E. coli, K. pneumoniae, and S. aureus. Minimum Inhibitory Concentrations (MIC) were measured in 96-well plates by broth dilution. […] Following 1 hr. incubation, bacteria in growth media were added and the plates were incubated overnight at 37° C. Sterilized, wells were identified to determine MIC. […] The value for 100% hemolysis was established by treatment with the detergent Triton-X100. Toxicity was measured by incubating serially diluted peptide with WI38 human fibroblast cells in the presence of SYTOX Green, a DNA binding dye that reports on cell death by membrane permeabilization. The peptide concentration that gives 50% cytotoxicity by relative SYTOX Green fluorescence, is denoted EC50. WI-38 cells were grown to confluency in T-75 flasks in complete DMEM (with 15% FBS, plus antibiotics and non-essential amino acids). The day prior to cytotoxicity experiments, cells were trypsinized, removed from the flask, and pelleted. Cells were resuspended in complete DMEM and the cell count was obtained using a cell counter. The cells were then seeded at a density of 10,000 cells/well in a 96-well tissue-culture plate. […] To perform the cytotoxicity assay, media from wells of overnight cell culture plate was removed, washed once with PBS and treated with 50 μl of the peptide and SYTOX™ Green mixture. The plate was read for fluorescence, every 5 minutes, for an hour at the excitation wavelength of 385 nm and emission wavelength of 530 nm. MelP5, a potent MPP, that causes 100% SYTOX™ Green entry into the cells was used as a positive control to normalize the cytotoxicity of peptides tested. MIC values were reported in μM peptide against gram-negative E. coli (EC), P. aeruginosa (PA), and gram-positive S. aureus (SA). […] The column marked “EC 50” contains the concentration of peptide that kills 50% of WI-38 human fibroblast cells assayed by entry of SYTOX™ Green DNA binding dye.
# [9] = tested on: Klebsiella pneumoniae clinical isolates; settings: clinical isolates
# [10] = fractional hemolysis of 1×10^8 human RBC/ml at 100 μM peptide, Table 3
# [11] = fractional hemolysis of human RBCs at 100 μM peptide, Table 2
# [12] = 50% cytotoxicity by SYTOX Green, Table 2, read-out: EC50, μM (WI-38 Cells)
Compound,"MIC in Broth Dilution, E. coli, RBC − [4] [µM]","MIC, E. coli, No RBC [4] [µM]","MIC in Broth Dilution, E. coli, RBC + [4] [µM]","MIC, E. coli, 10^9 cells/ml RBC [4] [μM]","MIC in Broth Dilution, K. Pneumoniae, RBC + ([5]; Table 3) [µM]","MIC in Broth Dilution, S. Aureus, RBC − [6] [µM]","MIC, S. aureus, No RBC [6] [µM]","MIC, K. pneumoniae, 10^9 cells/ml RBC ([5]; Table 2) [μM]","MIC in Broth Dilution, S. Aureus, RBC + [6] [µM]","MIC, S. aureus, 10^9 cells/ml RBC [6] [μM]",Hemolysis at 100 μM [7],"EC50 [8, 12] [µM]",also measured
"CC1(C)S[C@@H]2[C@H](NC(=O)[C@H](N)c3ccccc3)C(=O)N2[C@H]1C(=O)O [AMP, Ampicillin]",–,–,–,–,–,–,–,–,–,–,–,–,MIC [1]: >150 µM; MIC [2]: >150 µM; MIC ([3]; isolate PA (mucoid)): >150 µM; MIC ([3]; isolate PA (non-mucoid)): >150 µM
CC(C)C[C@@H]1NC(=O)[C@H](CCCNC(=N)N)NC(=O)[C@H](CCCNC(=N)N)NC(=O)[C@H](C)NC(=O)[C@H](Cc2c[nH]c3ccccc23)NC(=O)[C@H](CCCNC(=N)N)NC(=O)[C@H](CCCNC(=N)N)NC(=O)CC[C@@H](C(N)=O)NC(=O)[C@H](CCCNC(=N)N)NC(=O)[C@H](CCCNC(=N)N)NC(=O)[C@H](Cc2ccccc2)NC(=O)[C@H](C)NC(=O)[C@H](Cc2ccccc2)NC(=O)[C@H](C)NC1=O [CYCLIZED-L-CONGA-E] (RRWARRLAFAFRRE-NH2; lactam N-14),22.9,24,>30,30,>30,>30,30,–,–,–,–,–,"Hemolysis at 100 μM [7, 10]: 0.03; Hemolysis at 100 μM [7, 11]: 0.03"
CC(C)C[C@@H]1NC(=O)[C@H](CCCNC(=N)N)NC(=O)[C@H](CCCNC(=N)N)NC(=O)[C@H](C)NC(=O)[C@H](Cc2c[nH]c3ccccc23)NC(=O)[C@H](CCCNC(=N)N)NC(=O)[C@H](CCCNC(=N)N)NC(=O)[C@H](CCCNC(=N)N)NC(=O)[C@H](CCCNC(=N)N)NC(=O)[C@H](Cc2ccccc2)NC(=O)[C@H](C)NC(=O)[C@H](Cc2ccccc2)NC(=O)[C@H](C)NC1=O [CYCLIZED-L-CONGA-OH] (cyclo(RRWARRLAFAFRR)),5.9,5.9,13.3,13.3,6,20,20,–,–,–,–,–,"Hemolysis at 100 μM [7, 10]: 0.7; Hemolysis at 100 μM [7, 11]: 0.7"
"CC(C)C[C@@H](NC(=O)[C@@H](CCCNC(=N)N)NC(=O)[C@@H](CCCNC(=N)N)NC(=O)[C@@H](C)NC(=O)[C@@H](Cc1c[nH]c2ccccc12)NC(=O)[C@@H](CCCNC(=N)N)NC(=O)[C@H](N)CCCNC(=N)N)C(=O)N[C@H](C)C(=O)N[C@H](Cc1ccccc1)C(=O)N[C@H](C)C(=O)N[C@H](Cc1ccccc1)C(=O)N[C@H](CCCNC(=N)N)C(=O)N[C@H](CCCNC(=N)N)C(N)=O [D-CONGA, rrwarrlafafrr (All D), reference compound] (H-[dR][dR][dW][dA][dR][dR][dL][dA][dF][dA][dF][dR][dR]-NH2)",–,1.0,–,0.8,–,5.7,5.7,3.8,6.3,6.3,0.06,110,–
"CC(C)C[C@@H](NC(=O)[C@@H](CCC(N)=O)NC(=O)[C@@H](CCCNC(=N)N)NC(=O)[C@@H](CCCNC(=N)N)NC(=O)[C@@H](C)NC(=O)[C@@H](Cc1c[nH]c2ccccc12)NC(=O)[C@@H](CCCNC(=N)N)NC(=O)[C@H](N)CCCNC(=N)N)C(=O)N[C@H](C)C(=O)N[C@H](Cc1ccccc1)C(=O)N[C@H](C)C(=O)N[C@H](Cc1ccccc1)C(=O)N[C@H](CCCNC(=N)N)C(=O)N[C@H](CCCNC(=N)N)C(N)=O [D-CONGA-Q7, rrwarrqlafafrr (All D)] (H-[dR][dR][dW][dA][dR][dR][dQ][dL][dA][dF][dA][dF][dR][dR]-NH2)",1,1,1.7,1.7,–,4.2,4.2,1.5,3.6,3.6,0.07,418,EC50 against WI-38 cells relative to that of D-CONGA [8]: four times higher; Toxicity against WI-38 cells (in words) [8]: lower cytotoxicity; MIC [9]: 1.8 µM
"CC(C)C[C@@H](NC(=O)CCNC(=O)[C@@H](CCCNC(=N)N)NC(=O)[C@@H](CCCNC(=N)N)NC(=O)[C@@H](C)NC(=O)[C@@H](Cc1c[nH]c2ccccc12)NC(=O)[C@@H](CCCNC(=N)N)NC(=O)[C@H](N)CCCNC(=N)N)C(=O)N[C@H](C)C(=O)N[C@H](Cc1ccccc1)C(=O)N[C@H](C)C(=O)N[C@H](Cc1ccccc1)C(=O)N[C@H](CCCNC(=N)N)C(=O)N[C@H](CCCNC(=N)N)C(N)=O [D-CONGA-βa7, rrwarr-βa-lafafrr (All D)] (H-[dR][dR][dW][dA][dR][dR][βAla][dL][dA][dF][dA][dF][dR][dR]-NH2)",–,–,–,–,–,–,–,–,–,–,0.02,–,Toxicity against WI-38 cells (in words) [8]: least toxic of the variants
"rrwa (nor r, nor r)lafafrr [D-CONGA-NorR]",1.9,1.9,2.4,2.4,11.8,7.6,7.6,12,17.2,17.2,–,66,"MIC in Broth Dilution, K. Pneumoniae, RBC − ([5]; absence of RBC, Table 3): 13.3 µM; MIC, K. pneumoniae, No RBC ([5]; no RBC, Table 2): 13 µM; EC50 ([8]; kills 50% of WI-38 cells, SYTOX Green entry, Table 3, read-out: EC50, μM (WI-38)): 66 µM"
